{"source": "patent US11597737B2", "about": "“Small molecule inhibitors selective for polo-like kinase proteins” (UNIVERSITY OF SOUTH CAROLINA, priority 2016, dated 2023)", "key": {"PLK1 PBD (367-603)": {"target": "T1, PLK1 PBD (367-603) (Homo sapiens, UniProt P53350)", "T1 construct": "PLK1 PBD (367-603); purchased BPS Biosciences Inc. (San Diego, Calif.)", "T1 sequence (P53350 367-603)": "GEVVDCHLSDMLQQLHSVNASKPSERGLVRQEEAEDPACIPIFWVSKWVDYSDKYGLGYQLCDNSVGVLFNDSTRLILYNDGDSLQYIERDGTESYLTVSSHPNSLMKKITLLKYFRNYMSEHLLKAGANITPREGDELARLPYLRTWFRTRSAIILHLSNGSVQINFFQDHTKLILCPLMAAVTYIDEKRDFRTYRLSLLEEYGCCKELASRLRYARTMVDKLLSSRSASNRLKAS", "experiment": "Fluorescence polarization assay, PLK1 PBD", "type": "binding", "experimental": "(§1) Fluorescence Polarization Assay\n(§2) Materials were dissolved in DMSO (10 mM) and diluted from 10 nM to 600 μM (maximum of 6% DMSO tolerance in the assay). […] Incubation was carried out at room temperature for 45 minutes. Fluorescence was measured using a DTX 880 plate reader and Multimode Analysis software (Beckman Coulter, Brea, Calif.). […] Each data point was performed in triplicate for every experiment, and experiments were performed at least three times. An IC50 value for each compound was calculated from linear regression analysis of the plots."}, "PLK3 PBD (335-646)": {"target": "T2, PLK3 PBD (335-646) (Homo sapiens, UniProt Q9H4B4)", "T2 construct": "PLK3 PBD (335-646); purchased BPS Biosciences Inc. (San Diego, Calif.)", "T2 sequence (Q9H4B4 335-646)": "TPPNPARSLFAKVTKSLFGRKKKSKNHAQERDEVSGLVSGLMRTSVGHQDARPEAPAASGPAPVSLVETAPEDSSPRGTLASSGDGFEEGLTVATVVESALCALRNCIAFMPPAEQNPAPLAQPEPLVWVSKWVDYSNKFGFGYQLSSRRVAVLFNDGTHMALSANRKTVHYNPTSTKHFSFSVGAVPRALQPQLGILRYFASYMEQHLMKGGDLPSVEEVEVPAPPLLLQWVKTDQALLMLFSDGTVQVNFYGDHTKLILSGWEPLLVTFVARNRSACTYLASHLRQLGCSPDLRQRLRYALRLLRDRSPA", "experiment": "Fluorescence polarization assay, PLK3 PBD", "details": "PLK3 PBD binding", "experimental": "as §1, §2"}, "[1]": {"test_system": "KRAS mutant lung cancer (A-549) cells", "experiment": "Cell viability assay (MTT), A-549", "type": "cell-based", "details": "Homo sapiens, A549, 72 hours", "experimental": "(§3) A-549 lung cancer cells were maintained in Hams F-12 1× with glutamine (Corning® Cellgro, Manassas, Va.), and supplemented with 10% FBS or Corning® Nu-Serum™ (BD™ Biosciences, Franklin Lakes, N.J.) and 1% penicillin/streptomycin (Invitrogen™) in a humidified incubator and 5% C02 at 37° C.\n(§4) Exponentially growing cells were plated in 96-well dishes. Dose response curves were used to treat cells for 72 hours with inhibitors. Following the three-day treatment, cell viability was measured using the MTT (3-(4,5-dimethylthiazol-2-yl)-2,5-diphenyltetrazolium bromide) colorimetric assay. Cells were incubated for 3 hours with MTT allowing viable cells to metabolize the tetrazolium dye to a purple colored solution. Absorbance measurements (595 nm) were quantified using a DTX 880 plate reader and IC50 values were generated for FLIPs."}, "[2]": {"test_system": "HCT-116 (p53−/−) colon cancer cells", "experiment": "Cell viability assay (MTT), HCT116 p53-/-", "type": "cell-based", "details": "Homo sapiens, HCT-116, 72 hours", "experimental": "HCT-116 (p53+/+ and −/−) colon cancer cells were maintained DMEM (Invitrogen™, Carlsebad, Calif.) supplemented with 10% FBS or Nu-serum (BD™ Biosciences, Franklin Lakes, N.J.) and 1% penicillin/streptomycin (Invitrogen™) in a humidified incubator and 5% C02 at 37° C.\nas §4"}, "PC3 cells": {"test_system": "PC3 cells", "experiment": "Cell cycle analysis and BrdU pulse labeling in PC3 cells, FIG. 9-11", "type": "cell-based", "details": "15 μM", "experimental": "Analysis of Cell Cycle Progression by FACS\nSerum-Starved Synchronization\nCells were synchronized in G1 by serum starvation. Briefly, exponentially growing cells were plated overnight. Media (DMEM, 10% FBS, 1% Pen. Strep.) was then removed and replaced with media containing no FBS. Cells were starved for 72 hours then treated for 24 hours with inhibitor. Following treatment, cells were harvested and processed for endpoint experimental analysis.\nEthanol fixative was removed by centrifugation and the cells were washed with 1 mL ice-cold PBS/1% BSA. Cells were denatured by resuspending in 0.2 mg/mL pepsin in 2N HCl and incubated in 37° C. water bath for 15 minutes. Hydrolysis was then terminated by adding 1 M Invitrogen™ Novex® Tris-Glycine. Cells were then washed with PBS/1% BSA then the primary anti-BrdU antibody (1:100 dilution in TBFP; 0.5% Tween-20, 1% BSA, 1% FBS, PBS) was added and cells were incubated for 25 minutes in the dark, at room temperature. […] Cells were washed once more with PBS/1% BSA and re-suspended in DAPI for 30 minutes before being analyzed by flow cytometry.\nThe PLK1 PBD-inhibitors were analyzed further by cell cycle analysis in PC3 cells (FIG. 9). […] To quantify the percentage of cells actively proliferating (synthesizing their DNA) or arrested Bromodeoxyuridine (BrdU) pulse labeling was carried out and analyzed by flow cytometry."}, "[3]": {"test_system": "WT Retinal Pigment Epithelial (RPE) cells", "experiment": "Cell viability assay, WT RPE cells", "type": "cell-based", "details": "FIG. 7, FIG. 8", "experimental": "as §3, with “Retinal Pigment Epithelial (RPE)” for “A-549 lung cancer”, “1:1 DMEM/Hams” for “Hams”, “(Invitrogen™, Carlsebad, Calif.; Corning®” for “1× with glutamine (Corning®”\nas §4, with “solution.” for “solution. Absorbance measurements (595 nm) were quantified using a DTX 880 plate reader and IC50 values were generated for FLIPs.”"}, "[4]": {"test_system": "mutant (C67V) PLK1 RPE cells", "experiment": "Cell viability assay, PLK1 C67V mutant RPE cells", "type": "cell-based", "details": "FIG. 6-8", "experimental": "as §3, with “Retinal Pigment Epithelial (RPE)” for “A-549 lung cancer”, “1:1 DMEM/Hams” for “Hams”, “(Invitrogen™, Carlsebad, Calif.; Corning®” for “1× with glutamine (Corning®”\nas §4, with “solution.” for “solution. Absorbance measurements (595 nm) were quantified using a DTX 880 plate reader and IC50 values were generated for FLIPs.”"}, "[5]": {"details": "PLK1 PBD binding, fluorescence polarization, read-out: PLK1 IC50"}, "[6]": {"details": "Table 1, fluorescence polarization, read-out: PLK1 PBD IC50"}}, "note": "Where two headings read alike, the source gives them in different places."}
{"compound": "CCCCCCc1ccc(C(=O)Nc2cccc(C(=O)O)c2)cc1", "note": "[SCCP ID No. 5903]", "values": [{"measurement": "IC50", "setting": "PLK1 PBD (367-603); [5]", "value": "130 ± 3.6", "unit": "µM"}, {"measurement": "Selectivity Fold Index", "setting": "PLK1 PBD (367-603); fold selectivity for PLK1 versus PLK3 PBD", "value": 1.6}, {"measurement": "IC50", "setting": "PLK3 PBD (335-646)", "value": "43.6 ± 1.69", "unit": "µM"}]}
{"compound": "CCCCCCCCc1ccc(C(=O)NCCC(=O)O)cc1", "note": "[SCCP ID No. 5975]", "values": [{"measurement": "IC50", "setting": "PLK1 PBD (367-603); [6]", "value": "> 200", "unit": "µM"}]}
{"compound": "CCCCCCc1ccc(C(=O)Nc2ncccc2C(=O)O)cc1", "note": "[SCCP ID No. 5904]", "values": [{"measurement": "IC50", "setting": "PLK1 PBD (367-603); [6]", "value": "> 600", "unit": "µM"}]}
{"compound": "CCCCCCCCc1ccc(C(=O)NCc2ccccc2C(=O)O)cc1", "note": "[SCCP ID No. 5913]", "values": [{"measurement": "IC50", "setting": "PLK1 PBD (367-603); [6]", "value": 105, "unit": "µM"}]}
{"compound": "CCCCCCc1ccc(C(=O)Nc2cccc(S(N)(=O)=O)c2)cc1", "note": "[SCCP ID No. 5908]", "values": [{"measurement": "IC50", "setting": "PLK1 PBD (367-603); [5]", "value": "> 600", "unit": "µM"}, {"measurement": "binding to the PLK1 PBD (in words)", "setting": "PLK1 PBD (367-603); fluorescence polarization", "value": "No binding was observed"}]}
{"compound": "CCCCCCCCc1ccc(CNc2ccc(C)cc2C(=O)O)cc1", "note": "[SCCP ID No. 5961]", "values": [{"measurement": "IC50", "setting": "PLK1 PBD (367-603); [5]", "value": "> 600", "unit": "µM"}, {"measurement": "binding to the PLK1 PBD (in words)", "setting": "PLK1 PBD (367-603); fluorescence polarization", "value": "undetectable"}, {"measurement": "IC50", "setting": "PLK3 PBD (335-646)", "value": 157, "unit": "µM"}]}
{"compound": "CCCCCCc1ccc(C(=O)Nc2ccccc2C(=O)O)cc1", "note": "[SCCP ID No. 5881]", "values": [{"measurement": "binding to the PLK1 PBD (in words)", "setting": "PLK1 PBD (367-603); fluorescence polarization", "value": "low micromolar activity"}]}
{"compound": "CCCCCCCCc1ccc(CNc2ccccc2C(=O)O)cc1", "note": "[SCCP ID No. 5953]", "values": [{"measurement": "IC50", "setting": "PLK1 PBD (367-603); [5]", "value": "9.57 ± 2.03", "unit": "µM"}]}
{"compound": "CCCCCCc1ccc(C(=O)Nc2ccccc2O)cc1", "note": "[SCCP ID No. 5943]", "values": [{"measurement": "IC50", "setting": "PLK1 PBD (367-603); [5]", "value": "> 600", "unit": "µM"}, {"measurement": "binding to the PLK1 PBD (in words)", "setting": "PLK1 PBD (367-603); fluorescence polarization", "value": "No binding was observed"}]}
{"compound": "CCCCCCCCc1ccc(C(=O)Nc2cc(F)cc(F)c2C(=O)O)cc1", "note": "[SCCP ID No. 5938]", "values": [{"measurement": "IC50", "setting": "PLK1 PBD (367-603); [5]", "value": "30.6 ± 3.2", "unit": "µM"}]}
{"compound": "CCCCCCCCc1ccc(C(=O)Nc2ccccc2C(=O)O)cc1", "note": "[SCCP ID No. 5912]", "values": [{"measurement": "IC50", "setting": "[1]", "value": "2.8 ± 0.1", "unit": "µM"}, {"measurement": "PLK1 versus PLK3 specificity (in words)", "setting": "PLK1 PBD (367-603); PBD binding", "value": "relatively equipotent for PLK1 and PLK3 PBD binding"}, {"measurement": "IC50", "setting": "[2]", "value": "8 ± 1.7", "unit": "µM"}, {"measurement": "cell cycle phenotype (in words)", "setting": "PC3 cells", "value": "S phase delay"}, {"measurement": "sensitivity of cells containing wild type PLK1 (in words)", "setting": "[3]", "value": "sensitive"}, {"measurement": "sensitivity of cells containing mutant (C67V) PLK1 (in words)", "setting": "[4]", "value": "sensitive"}]}
{"compound": "CCCCCCCCc1ccc(C(=O)Nc2cccc([N+](=O)[O-])c2C(=O)O)cc1", "note": "[SCCP ID No. 5939]", "values": [{"measurement": "IC50", "setting": "PLK1 PBD (367-603); [5]", "value": "6.05 ± 1.9", "unit": "µM"}]}
